What all share (type): in vivo, mice
In one experiment the test system is 4T1 breast carcinoma. Nature of the experiment: Immune cell infiltration in 4T1 breast carcinoma (FACS). The following applies: 2 μg daily i.v. for 5 days. An excerpt:
Dextran coated iron oxide encapsulated with 18:0 PEG2000 PE micelle formulation and doxorabicin-micelles were made in the laboratory. 4T1 murine breast carcinoma is an orthotopic implant model by inoculating of 5×10^5 cells in die mammary fat pad of syngeneic BALB/c mice. RIP1-TagS insulinoma model (on C3H background) contains the oncogene SV40 Large T antigen (Tag; RIP, rat insulin gene promoter) that is exclusively expressed in β cells of the pancreas resulting in pancreatic tumours of neuroendocrine origin. ALB-Tag HOC (in C3H background) contains the oncogene SV40 Large T antigen (Tag) that is exclusively expressed in hepatocytes under the control of the albumin (ALB) promoter, resulting in rapid (non-metastatic) HCC tumour progression.
Mice bearing 4T1 breast carcinoma, when tumour size reached 500 mm^3, were treated with 0.5 and 2 μg TNFα-CSG or native TNFα (in 100 μL) by daily intravenous injection for 5 days. FACS quantification of CD4+ and CD8+ T cells and infiltrating macrophages (CD11b+/CD68+/F4/80+) harvested in whole tumours is presented in FIG. 5.
As noted in Example 2, native TNFα at 2 μg is toxic (all mice died after receiving 2 doses of 2 μg TNFα). A lower dose of native TNFα (0.5 μg) is not effective compared to 0.5 μg TNFα-CSG (FIG. 5).

Experiment [1] has as its system 4T1 breast carcinoma and RIP-Tag insulinoma. Nature of the experiment: Tumour stiffness by optical coherence tomography/micro-elastography. The following applies: 2 μg/day × 4 total injections.
The subject of another experiment is 4T1 breast tumours. Nature of the experiment: Secondary metastasis of 4T1 breast tumours. The following applies: 10 μg daily i.v., up to eight injections. On the procedure: 4T1cells in blood, lung, liver and lymph nodes were harvested once the primary tumours reached 2,000 mm^3. Cell suspensions from these tissues were cultured in 6-thioguanine-containing media to select for 4T1 cells that are resistant to 6-thioguanine. Colonic metastasis of methylene blue stained cells were counted. It is known that the lung is the primary site of metastasis of breast tumours. […] Similarly, the colonic metastasis counts in liver and lymph nodes were lower in the TNFα-CSG treated group.

Turning to “TNFα-CSG: Mature murine TNFα (SEQ ID NO:6) with C-terminal conjugated peptide CSGRRSSKC connected via a GGG linker; recombinant fusion protein”, the “increase in immune cell infiltration (CD4+, CD8+ T cells, macrophages)” value in the experiment with 4T1 breast carcinoma is given as “most effective”. The tumour stiffness entry in experiment [1] was “below 100 kPa”. Further, the “tissue stiffness (stiffness >100 kPa) and stiffness variance” value in experiment [1] (frequency distribution) is on record as “significantly reduced”. For the same substance, in the experiment with 4T1 breast tumours, the “hypoxia in primary tumours” value was “significantly reduced hypoxia”; the “lung metastasis (cell density/tissue)” value is “significantly reduced lung metastasis”; the “metastatic colony counts in liver and lymph nodes” value is on record as “lower”; the tumour centre result is listed as “enlarged tumour centres that were cleared of tumour burden”.

The record behind these values is US20190022239A1, “NOVEL BIOMOLECULE CONJUGATES AND USES THEREFOR” (The University of Western Australia, priority 2016, published 2019).
